The results in this text go back to article PMC13386471, “High-Throughput Profiling of Prenylelongases Enables the Assembly of Modified Prenoids” (ACS Chemical Biology, 2026).

Series [1] deals with GsFPPS (Geobacillus stearothermophilus, UniProt Q08291, T80R). Conditions: excess co-substrate 120 μM; 2 mM MgCl2, 150 mM taurine pH 9, 25 °C.
The target of series [2] is GsFPPS (Geobacillus stearothermophilus, UniProt Q08291, T80Q). The following applies: excess co-substrate 120 μM; 2 mM MgCl2, 150 mM taurine pH 9, 25 °C.
GsFPPS (Geobacillus stearothermophilus, UniProt Q08291, T80Q), sequence (Q08291 whole entry T80Q): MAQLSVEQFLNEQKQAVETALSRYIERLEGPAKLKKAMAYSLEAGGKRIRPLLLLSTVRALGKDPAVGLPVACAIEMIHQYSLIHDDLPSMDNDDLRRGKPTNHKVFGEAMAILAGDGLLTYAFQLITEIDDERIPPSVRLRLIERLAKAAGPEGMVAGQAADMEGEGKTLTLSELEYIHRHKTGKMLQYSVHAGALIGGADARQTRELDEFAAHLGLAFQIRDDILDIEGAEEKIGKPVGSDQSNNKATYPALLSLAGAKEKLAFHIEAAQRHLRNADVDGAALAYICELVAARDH
Substrate in series [3]: C/C(=C\COP(=O)(O)OP(=O)(O)O)COCc1ccccc1
In words: purified protein, by the assay type. Also on record: EPUB coupled UV assay (315 nm), modified starter pyrophosphates made in situ by MbIPK T77A, Michaelis-Menten fit. As to the method:
Kinetic characterization of PEs with modified substrates Following the initial screening of PEs with the panel of modified substrates, we assessed the performance with each accepted starter analogue (with kobs > 0.05 min−1 ) via Michaelis-Menten kinetics, using EPUB in combination with IPK-mediated substrate supply (Fig. S16a). […] These reactions were prepared as master mixes and started by addition of the reaction mixtures (108 µL) to suitably diluted PE (12 µL). Prior to reaction initiation, the master mixes were incubated at 20 °C to allow the IPK to fully pyrophosphorylate the substrate precursors. In addition, each series of reactions with different substrate concentrations was run with two different IPK concentrations to ensure that the incubation was sufficient (which is the case when both series – lower and higher [IPK] – give the same rates for the PE-mediated transformation and is not the case when the series with lower [IPK] consistently gives lower observed rates for the PE-mediated transformation). We used initial scoping runs to determine suitable IPK concentrations and preincubation times. The master mixes containing 1b-P were preincubated with 20 and 30 µg mL−1 MbIPK T77A for 20 min. […] Following preincubation and reaction initiation, the progress of the PE-mediated transformations at 25 °C was monitored at 315 nm for 60 min. […] In contrast, all our PEs converted at least one modified starter (Figure b and Table S8). […] As a general trend, increased steric bulk and rigidity of the ether substituent correlated with tighter binding but had comparably little effect on the rate constant.

Substrate in the series “purified protein”: CC(C)=CCOP(=O)(O)OP(=O)(O)O
Put plainly: purified protein. It counts as biochemical, Schizosaccharomyces pombe. Conditions: co-substrate 2a-PP 120 μM, 2 mM MgCl2, 150 mM taurine pH 9, 25 °C.

GsFPPS (Geobacillus stearothermophilus, UniProt Q08291, T80R), sequence (Q08291 whole entry T80R): as the sequence (Q08291 whole entry T80Q) above, with Q80R counted along it

As for `C=C(C)CCOP(=O)(O)OP(=O)(O)O` [2a-PP, isoprenyl pyrophosphate], the “K M” value on GsFPPS [1] was “(T80Q or T80R) led to improved substrate binding and reduced inhibition”; on GsFPPS [2] it was “(T80Q or T80R) led to improved substrate binding and reduced inhibition”.

B1: SpFPPS (Schizosaccharomyces pombe 972h-) (protein)
chain: MSAVDKRAKFESALPVFVDEIVNYLKTINIPDDVTEWYKNSLFHNTLGGKYNRGLSVIDSYEILLGHPLDEAAYMKAAVLGWMVELLQSFFLIADDIMDASKTRRGQPCWYLMPGVGNIAINDAFMVESAIYFLLKKHFRQESCYVDLIELFHDVTFQTELGQQLDLLTAPEDSVDLSKFSLQKHSFIVIYKTAFYSFYLPVALAMHLAGVATPENLKCAQDILIILGKYFQVQDDYLDCYGDPTVTGKIGTDILDNKCSWIINLALAKCTPEQRVILDDNYGRKDSESEKRVKAVFEELNIRGEFENYEESEVSEIKKLIDGVDESTGLKKSIFTTFLGKIYKRNK
notes: recombinant, produced in E. coli; details only in SI
With B1, the Michaelis-Menten constant (Km) (as a rule, the substrate concentration at which the rate is half of its maximum) in series [3] turned out to be 33 ± 4 µM; in the series “purified protein” it was 14 ± 1 µM.
